Test results taken from patent US20090181904A1, “METHOD FOR REGULATING NUTRIENT ABSORPTION WITH GINSENOSIDES” (priority 2005, published 2009).

How the values were obtained:
Type in all cases: cell-based, human
Caco2 cell monolayer = assay: Glucose absorption assay (transport across Caco2 monolayer in transwell, 14C-glucose); details: for Transport rate (glucose): 2 days pretreatment, 25 mM glucose
Experimental: For glucose absorption assay, 0.3 mL (10^5 cell/ml) of Caco2 cells were seeded into the apical chamber of each transwell and the basolateral chamber was added with 1 ml of culture medium (as indicated above). Costar transwell inserts (No. 3414, Corning Incorporated, NY, USA) separate each well in 24-well plates into an apical chamber (defined as a chamber above the insert) and a basolateral chamber (defined as a chamber below the insert). The culture medium in each transwell was changed every 2 days in both of the apical and basolateral chambers. To ensure the integrity of tight junction of Caco2 monolayer membrane formed in the transwell, a Trans-Epithelial Electrical Resistance (TEER) assay was conducted using Millicell®-ERS (Millipore EVOM-6; World Precision Instrument, Sarasota, Fla., USA) to measure the TEER between apical and basolateral chambers of the transwell. As the measured TEER reached 300 to 450 Ωcm^2 with the presence of differentiated brush border on the […] side of the cell on the 14th to 21st day of the culture, the Caco2 monolayer was ready for the glucose absorption test. The TEER values were taken before, during, and after each experiment to justify consistency of the data collected.
Glucose absorption was initiated by replacing the culture medium in the basolateral chamber with fresh glucose absorption buffer and the culture medium in the apical chamber with 0.2 mL of the glucose absorption buffer containing 2 μCi/ml of radioactive D-[^14C]-glucose (60 Ci/mmol, American Radiolabeled Chemicals, ARC, St. Louis, Mo., USA) and unlabeled cold glucose to give glucose at a final concentration of 25 mM. A series of five 10-μL samples were taken from the basolateral chamber at every 5 or 10 minute intervals. In order to maintain the constant buffer volume, same amount of sample buffer were added back to the basolateral chamber after withdrawn of each sample. The samples were transferred to the filter-bottomed UniFilter plates (Perkin-Elmer, Wellesley, Mass., USA) and dried in a vacuum oven at 37° C. The bottom of the UniFilter plate was sealed and 25 μL of the counting solution were added into each well. Adhesive plate sealers were used in place of the lids and radioactivity of each sample was counted using the microplate liquid scintillation counter (TopCount, Packard NXT, Packard BioScience Company, Meriden, Conn., USA). The effect of test compounds on glucose absorption was expressed as the nmoles of glucose accumulated in the basolateral chamber with respect to time in minutes (nmol/min). The glucose absorption rate was obtained by calculating the slope of the straight line from the time zero to the end point of the graphic data of each figure.

Caco-2 cell monolayer = assay: Arginine absorption assay (transport across Caco-2 monolayer, 3H-arginine); details: for Transport rate (arginine): 10 mM L-arginine
Experimental: In measuring transport of arginine across the Caco-2 cell monolayer, both sides of the transwells were washed with arginine incubation buffer consisting of: 137 mM NaCl, 10 mM Hepes, 0.3 mM NaH2PO4, 0.3 mM K2HPO4, 5.4 mM KCl, 2.8 mM CaCl2, 1 mM MgSO4, 10 mM glucose, adjusted to pH 7.4. Then, the cell layer was pre-incubated in the incubation buffer at 37° C. for 1 h. The volumes of incubation buffer were 0.2 mL and 0.9 mL in the apical and basolateral chambers, respectively. The cells were replaced with fresh incubation medium in both chambers prior to the transport experiment. The transport experiment was initiated by replacing the incubation solution on the apical side with solution containing 10 mM of L-arginine in which 0.125 μCi/mL of L-[^3H]-arginine was included. At designated time intervals, 10 μL-solution samples were removed from the basolateral side and radioactivity of each sample was counted using a microplate liquid scintillation counter (TopCount, Packard NXT). During the experiment, when a 10 μL-solution sample was removed from the basolateral side every time, 10 μL buffer was supplemented to keep the volume constant. The uptake of [^3H]-mannitol was used to correct for nonspecific transport of molecules across the monolayer membrane. Results were expressed as the nanomoles of arginine transport across the Caco-2 cell monolayers with respect to time in minutes (nmol/min).

Caco2 cells = assay: Folate uptake assay (3H-folate uptake in Caco2 cells); details: compound 0.1 μM; for Transport rate (folate uptake): 2 days pretreatment, 5 μM folate, pH 6.0
Experimental: The Caco2 cells were subjected to folate uptake test in a manner similar to that described in the glucose uptake assay in Example 1 above. In the folate uptake test, the Caco2 cells were pretreated with the culture medium containing 5% FBS and purified ginsenosides at a concentration of […] for 2 days before the cells were cultured in a folate uptake buffer (Hank's balanced salt solution, supplemented with 0.14 g/L CaCl2, 0.1 g/L MgCl2, and 0.1 g/L MgSO4, pH 6.0) for 1 hour. The buffer was then aspirated, and uptake was initiated by adding 0.2 mL of fresh folate uptake buffer containing 2 μCi/mL radioactive folate (3,5,7,9-^3H-folic acid, 25 mCi/mmol, ARC) and cold, unlabeled folate giving a final folate concentration of 5 μM. Folate uptake was terminated by removing the uptake buffer at designated time intervals. The cells were then washed three times with ice-cold PBS and lysed by adding 0.2 mL of 0.2 N NaOH, followed by incubating at 65° C. for 20 min. Intracellular uptake of ^3H-folate was determined by transferring 20 μL of the cell lysate to the filter-bottomed UniFilter plates (Perkin-Elmer) and counting as described previously in Example 1. The amount of folate accumulated in the cells was calculated and normalized to protein concentration, and uptake rate was expressed as picomoles of folate per minutes per milligram of cell protein (pmol/min/mg). Protein concentration was determined by a standard Bicinchoninic acid (BCA) protein assay as described above.

Row | Structure (SMILES) | Percentage (glucose transport, control = 100) (Caco2 cell monolayer; compound 0.01 μM) [%] | Transport rate (glucose) (Caco2 cell monolayer; compound 0.01 μM) [nmol/min] | Percentage (glucose transport, control = 100) (Caco2 cell monolayer; compound 0.1 μM) [%] | Transport rate (glucose) (Caco2 cell monolayer; compound 0.1 μM) [nmol/min] | Percentage (glucose transport, control = 100) (Caco2 cell monolayer; compound 1 μM) [%] | Transport rate (glucose) (Caco2 cell monolayer; compound 1 μM) [nmol/min] | Percentage (arginine transport, control = 100) (Caco-2 cell monolayer; compound 0.01 μM) [%] | Transport rate (arginine) (Caco-2 cell monolayer; compound 0.01 μM) [nmol/min] | Percentage (arginine transport, control = 100) (Caco-2 cell monolayer; compound 0.1 μM) [%] | Transport rate (arginine) (Caco-2 cell monolayer; compound 0.1 μM) [nmol/min] | Percentage (arginine transport, control = 100) (Caco-2 cell monolayer; compound 1 μM) [%] | Transport rate (arginine) (Caco-2 cell monolayer; compound 1 μM) [nmol/min] | glucose transport rate (in words, FIG. 1) (Caco2 cell monolayer; compound 0.1 μM to 5 μM) | Percentage (folate uptake, control = 100) (Caco2 cells) [%] | folate uptake versus non-treated control (in words, FIG. 5) (Caco2 cells) | Transport rate (folate uptake) (Caco2 cells) [pmol/mg/min] | effect on glucose absorption (in words) (Caco2 cell monolayer)
1 | CC(C)=CCC[C@](C)(O[C@@H]1O[C@H](CO)[C@@H](O)[C@H](O)[C@H]1O)[C@H]1CC[C@]2(C)[C@@H]1[C@H](O)C[C@@H]1[C@@]3(C)CC[C@H](O)C(C)(C)[C@@H]3[C@@H](O)C[C@]12C [GF1, ginsenoside F1] | 141.12 | 3.0783 ± 0.9550 | 153.80 | 3.3551 ± 0.3248 | 150.65 | 3.2862 ± 0.3429 | 126.74 | 13.5425 ± 1.8630 | 118.73 | 12.6865 ± 0.2964 | 97.06 | 10.3711 ± 0.6574 |  |  |  |  | 
2 | CC(C)=CCC[C@](C)(O[C@@H]1O[C@H](CO[C@@H]2O[C@H](CO)[C@@H](O)[C@H](O)[C@H]2O)[C@@H](O)[C@H](O)[C@H]1O)[C@H]1CC[C@]2(C)[C@@H]1[C@H](O)C[C@@H]1[C@@]3(C)CC[C@H](O[C@@H]4O[C@H](CO)[C@@H](O)[C@H](O)[C@H]4O[C@@H]4O[C@H](CO)[C@@H](O)[C@H](O)[C@H]4O)C(C)(C)[C@@H]3CC[C@]12C [Rb1, ginsenoside Rb1] | 102.26 | 2.2306 ± 0.1034 | 128.85 | 2.8107 ± 0.1982 | 157.01 | 3.4250 ± 0.4805 | 90.30 | 9.6487 ± 0.9377 | 111.08 | 11.8699 ± 1.9300 | 151.12 | 16.1484 ± 0.6228 | increased | 108.72 | increased folate uptake | 1.8710 ± 0.0320 | 
3 | CC(C)=CCC[C@](C)(O)[C@H]1CC[C@]2(C)[C@@H]1[C@H](O)C[C@@H]1[C@@]3(C)CC[C@H](O)C(C)(C)[C@@H]3[C@@H](O)C[C@]12C [Rga, 20(S)-protopanaxatriol] | 116.69 | 2.5454 ± 0.7808 | 167.15 | 3.6462 ± 0.4105 | 104.01 | 2.2689 ± 0.2598 | 118.16 | 12.6265 ± 0.9875 | 100.66 | 10.7555 ± 0.4532 | 95.38 | 10.1920 ± 1.2390 |  |  |  |  | 
4 | CC(C)=CCC[C@](C)(O)C1CC[C@]2(C)C1C(O)CC1[C@@]3(C)CCC(O)C(C)(C)C3C(OC3OC(CO)C(O)C(O)C3O)C[C@]12C (some centres unmarked) [Rh1, ginsenoside Rh1] | 62.20 | 1.3568 ± 0.1090 | 74.86 | 1.6329 ± 0.1976 | 61.02 | 1.3310 ± 0.8356 | 105.56 | 11.2792 ± 0.7768 | 109.13 | 11.6615 ± 0.8085 | 134.02 | 14.3209 ± 0.7418 |  | 49.36 | decreased | 0.8494 ± 0.453 | inhibitory effect
